This note sets out measurements from US7645781B2, “N-aryl-2-oxazolidinone-5-carboxamides and their derivatives” (Pfizer Inc, priority 2002, dated 2010).

Converted amounts (≈) assume the structure as drawn.

For data set [1], the system named is Staphylococcus aureus (SAUR 9213). Kind of data set: MIC by standard agar dilution method. It counts as cell-based. The conditions noted are these: Mueller Hinton agar, incubated overnight at 35° C., read-out: MIC. The text has this: The antibacterial agents of this invention have useful activity against a variety of organisms. The in vitro activity of compounds of this invention can be assessed by standard testing procedures such as the determination of minimum inhibitory concentration (MIC) by agar dilution as described in “Approved Standard. Methods for Dilution Antimicrobial Susceptibility Tests for Bacteria That Grow Aerobically”, 3rd. ed., published 1993 by the National Committee for Clinical Laboratory Standards, Villanova, Pa., USA. The in vitro MICs of test compounds are determined by a standard agar dilution method. A stock drug solution of each analog is prepared in the preferred solvent, usually DMSO:H2O (1:3). Serial 2-fold dilutions of each sample are made using 1.0 ml aliquots of sterile distilled water. To each 1.0 ml aliquot of drug is added 9 ml of molten Mueller Hinton agar medium. The drug-supplemented agar is mixed, poured into 15×100 mm petri dishes, and allowed to solidify and dry prior to inoculation. Vials of each of the test organisms are maintained frozen in the vapor phase of a liquid nitrogen freezer. Test cultures are grown overnight at 35° C. on the medium appropriate for the organism. Colonies are harvested with a sterile swab, and cell suspensions are prepared in Trypticase Soy broth (TSB) to equal the turbidity of a 0.5 McFarland standard. A 1:20 dilution of each suspension is made in TSB. The plates containing the drug supplemented agar are inoculated with a 0.001 ml drop of the cell suspension using a Steers replicator, yielding approximately 10^4 to 10^5 cells per spot. The plates are incubated overnight at 35° C. Following incubation the Minimum Inhibitory Concentration (MIC μg/ml), the lowest concentration of drug that inhibits visible growth of the organism, is read and recorded.

By melting point is commonly meant the temperature of the solid-liquid transition. Usually MIC stands for the smallest concentration in the dilution series that meets the test's criterion for growth inhibition. Consider `CC(C)n1c(=O)sc2cc(N3C[C@H](C(N)=O)OC3=O)ccc21` [Example 31, (5R)-(−)-3-(2,3-Dihydro-3-isopropyl-2-oxo-6-benzothiazolyl)-2-oxo-5-oxazolidinecarboxamide], for which the melting point is 183 to 184.5 °C. The MIC in data set [1] was 1 µg/mL (≈ 3.11 µM).

Compound `CNC(=O)[C@H]1CN(c2cc(F)c(N3CCOCC3)c(F)c2)C(=O)O1` [Example 42, (5R)-(−)-N-Methyl-3-[3,5-difluoro-4-(4-morpholinyl)phenyl]-2-oxo-5-oxazolidinecarboxamide] had a melting point of 179 to 181 °C. Besides, the MIC in data set [1] was found to be 4 µg/mL (≈ 11.7 µM).

`CC(C)n1c(=O)oc2cc(N3C[C@H](C(N)=O)OC3=O)ccc21` [Example 40, (5R)-(−)-3-(2,3-Dihydro-3-isopropyl-2-oxo-6-benzoxazolyl)-2-oxo-5-oxazolidinecarboxamide] had a melting point of 182.5 to 184 °C. In data set [1], the MIC stood at 4 µg/mL (≈ 13.1 µM).

Regarding `NC(=O)[C@H]1CN(c2ccc(N3CCOCC3)c(F)c2)C(=O)O1` [Example 1, (5R)-(−)-3-[3-Fluoro-4-(4-morpholinyl)phenyl]-2-oxo-5-oxazolidinecarboxamide], the melting point is 185 to 187 °C (dec.). For the same compound, the MIC in data set [1] was 4 µg/mL (≈ 12.9 µM).

`C=CCNC(=O)[C@H]1CN(c2ccc(N3CCOCC3)c(F)c2)C(=O)O1` [Example 3, (5R)-(−)-3-[3-Fluoro-4-(4-morpholinyl)phenyl]-N-allyl-2-oxo-5-oxazolidinecarboxamide] came in with a melting point of 167 to 169 °C. Besides, the MIC in data set [1] is 8 µg/mL (≈ 22.9 µM).

`O=C(NO)[C@H]1CN(c2ccc(N3CCOCC3)c(F)c2)C(=O)O1` [Example 6, (5R)-(−)-3-[3-Fluoro-4-(4-morpholinyl)phenyl]-N-hydroxy-2-oxo-5-oxazolidinecarboxamide] returned a melting point of 141 to 143 °C. The MIC in data set [1] came out at 16 µg/mL (≈ 49.2 µM).

The compound `NC(=O)[C@H]1CN(c2ccc(C3CCOCC3)c(F)c2)C(=O)O1` [Example 10, (5R)-(−)-3-[4-(Tetrahydro-2H-pyran-4-yl)-3-fluorophenyl]-2-oxo-5-oxazolidinecarboxamide] gave a melting point of 153 to 156 °C. In data set [1], the MIC was 4 µg/mL (≈ 13 µM).

As to `NC(=O)[C@H]1CN(c2ccc(N3CCN(C(=O)CO)CC3)c(F)c2)C(=O)O1` [Example 14, (5R)-(−)-3-[3-Fluoro-4-[4-(hydroxyacetyl)-1-piperazinyl]phenyl]-2-oxo-5-oxazolidinecarboxamide], the melting point was 232 to 235 °C (dec.). In addition, the MIC in data set [1] was found to be 4 µg/mL (≈ 10.9 µM).

Consider `NC(=O)[C@H]1CN(c2ccc(C3=NNC(=O)CS3)c(F)c2)C(=O)O1` [Example 64, (5R)-3-[3-Fluoro-4-(5-oxo-5,6-dihydro-4H-[1,3,4]thiadiazin-2-yl)phenyl]-2-oxo-5-oxazolidinecarboxamide], for which the melting point fell in the range of 249 to 251 °C. In addition, the MIC in data set [1] was found to be 0.5 µg/mL (≈ 1.48 µM).

For `CNC(=O)[C@H]1CN(c2cc(F)c3c(c2)CCC(=O)N3C)C(=O)O1` [Example 83, (5R)-N-Methyl-3-(8-fluoro-1-methyl-2-oxo-1,2,3,4-tetrahydroquinolin-6-yl)-2-oxo-5-oxazolidinecarboxamide], the melting point lay within 264 to 265 °C. The MIC in data set [1] was 2 µg/mL (≈ 6.22 µM).

Take `Cn1c(=O)sc2cc(N3C[C@H](C(=O)NCCO)OC3=O)ccc21` [Example 34, (5R)-(−)-N-(2-Hydroxyethyl)-3-(2,3-dihydro-3-methyl-2-oxo-6-benzothiazolyl)-2-oxo-5-oxazolidinecarboxamide]: the melting point lay in the range of 217 to 219 °C. Besides, the MIC in data set [1] was found to be 8 µg/mL (≈ 23.7 µM).

On to `CONC(=O)[C@H]1CN(c2ccc(N3CCOCC3)c(F)c2)C(=O)O1` [Example 5, (5R)-(−)-3-[3-Fluoro-4-(4-morpholinyl)phenyl]-N-methoxy-2-oxo-5-oxazolidinecarboxamide], for which the melting point was 206 to 208 °C (dec.). The MIC in data set [1] is 16 µg/mL (≈ 47.2 µM).

`NC(=O)[C@H]1CN(c2ccc(N3CC[S+]([O-])CC3)c(F)c2)C(=O)O1` [Example 21, (5R)-(−)-3-[3-Fluoro-4-(thiomorpholin-4-yl)phenyl]-2-oxo-5-oxazolidinecarboxamide S-oxide]: the melting point was 264 to 266 °C (dec.). The MIC in data set [1] came out at 8 µg/mL (≈ 23.4 µM).

In turn, `CCCNC(=O)[C@H]1CN(c2ccc(N3CCOCC3)c(F)c2)C(=O)O1` [Example 4, (5R)-(−)-3-[3-Fluoro-4-(4-morpholinyl)phenyl]-N-propyl-2-oxo-5-oxazolidinecarboxamide] returned a melting point of 165 to 167 °C. For the same compound, in data set [1], the MIC amounted to 16 µg/mL (≈ 45.5 µM).

For the compound `NC(=O)[C@H]1CN(c2ccc(-c3ccncc3)c(F)c2)C(=O)O1` [Example 8, (5R)-(−)-3-[4-(4-Pyridyl)-3-fluorophenyl]-2-oxo-5-oxazolidinecarboxamide], the melting point is 256 to 259 °C (dec.). The MIC in data set [1] was 1 µg/mL (≈ 3.32 µM).

`CNC(=O)[C@H]1CN(c2ccc3c(c2)oc(=O)n3C)C(=O)O1` [Example 51, (5R)-(−)-N-Methyl-3-(2,3-dihydro-3-methyl-2-oxo-6-benzoxazolyl)-2-oxo-5-oxazolidinecarboxamide] showed a melting point of 304 to 306 °C. Also, in data set [1], the MIC was determined as 2 µg/mL (≈ 6.87 µM).

As for `NC(=O)[C@H]1CN(c2ccc(C3CCS(=O)(=O)CC3)c(F)c2)C(=O)O1` [Example 13, (5R)-(−)-3-[4-(Tetrahydro-2H-thiopyran-4-yl)-3-fluorophenyl]-2-oxo-5-oxazolidinecarboxamide S,S-dioxide], the melting point is 229 to 231 °C (dec.). In addition, the MIC in data set [1] came to 2 µg/mL (≈ 5.61 µM).

`NC(=O)[C@H]1CN(c2ccc([C@H]3CC[S@+]([O-])CC3)cc2)C(=O)O1` [Example 27, (5R)-3-[4-(trans-tetrahydro-1-oxido-2H-thiopyran-4-yl)phenyl]-2-oxo-5-oxazolidinecarboxamide] had a melting point of 174 to 175 °C. The MIC in data set [1] was found to be 8 µg/mL (≈ 24.8 µM).

Regarding `NC(=O)[C@H]1CN(c2cc(F)c(N3CC[S+]([O-])CC3)c(F)c2)C(=O)O1` [Example 22, (5R)-(−)-3-[3,5-Difluoro-4-(thiomorpholin-4-yl)phenyl]-2-oxo-5-oxazolidinecarboxamide S-oxide], the melting point is 273 to 276 °C (dec.). Also, the MIC in data set [1] is 4 µg/mL (≈ 11.1 µM).

Turning to `NC(=O)[C@H]1CN(c2ccc([C@H]3CC[S@+]([O-])CC3)c(F)c2)C(=O)O1` [Example 24, (5R)-3-[3-Fluoro-4-(trans-tetrahydro-1-oxido-2H-thiopyran-4-yl)phenyl]-2-oxo-5-oxazolidinecarboxamide], the melting point was in the range of 201 to 203 °C. Further, the MIC in data set [1] came out at 2 µg/mL (≈ 5.88 µM).

With `CN1C(=O)CCc2cc(N3C[C@H](C(N)=O)OC3=O)cc(F)c21` [Example 82, (5R)-3-(8-Fluoro-1-methyl-2-oxo-1,2,3,4-tetrahydroquinolin-6-yl)-2-oxo-5-oxazolidinecarboxamide], the melting point lay in the range of 260 to 262 °C. In data set [1], the MIC was determined as 1 µg/mL (≈ 3.25 µM).

Regarding `CNC(=O)[C@H]1CN(c2cc(F)c(N3CC[S+]([O-])CC3)c(F)c2)C(=O)O1` [Example 43, (5R)-(−)-N-Methyl-3-[3,5-difluoro-4-(thiomorpholin-4-yl)phenyl]-2-oxo-5-oxazolidinecarboxamide S-oxide], the melting point was in the range of 237 to 241 °C. In addition, the MIC in data set [1] is 4 µg/mL (≈ 10.7 µM).

`CCNC(=O)[C@H]1CN(c2ccc3c(c2)sc(=O)n3C)C(=O)O1` [Example 33, (5R)-(−)-N-Ethyl-3-(2,3-dihydro-3-methyl-2-oxo-6-benzothiazolyl)-2-oxo-5-oxazolidinecarboxamide] showed a melting point of 224.5 to 226 °C. In addition, the MIC in data set [1] came to 4 µg/mL (≈ 12.4 µM).

On to `CCn1c(=O)oc2cc(N3C[C@H](C(=O)NC)OC3=O)ccc21` [Example 52, (5R)-(−)-N-Methyl-3-(2,3-dihydro-3-ethyl-2-oxo-6-benzoxazolyl)-2-oxo-5-oxazolidinecarboxamide], for which the melting point was in the range of 263 to 265 °C. Moreover, the MIC in data set [1] is 2 µg/mL (≈ 6.55 µM).

The compound `C[C@@H]1Cc2cc(N3C[C@H](C(N)=O)OC3=O)ccc2N1C(=O)CO` [Example 50, (5R)-3-[(2R)-2,3-Dihydro-1-(hydroxyacetyl)-2-methyl-1H-indol-5-yl]-2-oxo-5-oxazolidinecarboxamide] showed a melting point of 198 to 200 °C. For the same compound, the MIC in data set [1] stood at 2 µg/mL (≈ 6.26 µM).

In the case of `Cn1c(=O)sc2cc(N3C[C@H](C(=O)NCCF)OC3=O)ccc21` [Example 35, (5R)-N-(2-Fluoroethyl)-3-(2,3-dihydro-3-methyl-2-oxo-6-benzothiazolyl)-2-oxo-5-oxazolidinecarboxamide], the melting point fell in the range of 201 to 203 °C. In data set [1], the MIC is 2 µg/mL (≈ 5.89 µM).

`CNC(=O)[C@H]1CN(c2ccc(C3CCS(=O)(=O)CC3)c(F)c2)C(=O)O1` [Example 41, (5R)-(−)-N-Methyl-3-[4-(Tetrahydro-2H-thiopyran-4-yl)-3-fluorophenyl]-2-oxo-5-oxazolidinecarboxamide S,S-dioxide]: the melting point is 180.5 to 182 °C. The MIC in data set [1] is 2 µg/mL (≈ 5.4 µM).
